Tests used:
Details in all cases: tested as the 3H-labelled form
[1] = tested on: Human immunodeficiency virus; assay: Inhibition of HIV wild type integrase assessed as strand transfer activity using U5 GCCA LTR by scintillation proximity assay relative to wild type LTR; design: scale not given: the % may be the effect or the level left
[2] = tested on: Human immunodeficiency virus type 1 integrase (Human immunodeficiency virus 1), Q7ZJM1 [Q148R]; assay: Binding affinity to HIV recombinant integrase Q148R mutant using U5 GdCA LTR relative to wild type LTR
[3] = tested on: Human immunodeficiency virus type 1 integrase (Human immunodeficiency virus 1), Q7ZJM1 [N155H]; assay: Inhibition of HIV recombinant integrase N155H mutant assessed as specific strand transfer activity using U5 GTC LTR by scintillation proximity assay relative to wild type LTR; design: scale not given: the % may be the effect or the level left
[4] = tested on: Human immunodeficiency virus; assay: Inhibition of HIV wild type integrase assessed as strand transfer activity using U5 GTTA LTR by scintillation proximity assay relative to wild type LTR relative to wild type LTR; design: scale not given: the % may be the effect or the level left
[5] = tested on: Human immunodeficiency virus; assay: (§1) Inhibition of HIV wild type integrase assessed as strand transfer activity using U5 GTAA LTR by scintillation proximity assay relative to wild type LTR; design: scale not given: the % may be the effect or the level left
[6] = tested on: Human immunodeficiency virus; assay: Binding affinity to HIV wild type integrase U5 CTCA LTR relative to wild type LTR
[7] = tested on: Human immunodeficiency virus; assay: Inhibition of HIV wild type integrase assessed as strand transfer activity U5 GTCA/CC LTR by scintillation proximity assay relative to wild type LTR; design: scale not given: the % may be the effect or the level left
[8] = tested on: Human immunodeficiency virus; assay: as §1; design: scale not given: the % may be the effect or the level left; remark: listed apart in the source
[9] = tested on: Human immunodeficiency virus; assay: Inhibition of HIV wild type integrase assessed as strand transfer activity using U5 GTGA LTR by scintillation proximity assay relative to wild type LTR; design: scale not given: the % may be the effect or the level left
[10] = tested on: Human immunodeficiency virus type 1 integrase (Human immunodeficiency virus 1), Q7ZJM1 [N155H]; assay: Inhibition of HIV recombinant integrase N155H mutant assessed as specific strand transfer activity using U5 INTCA LTR by scintillation proximity assay relative to wild type LTR; design: scale not given: the % may be the effect or the level left
[11] = tested on: Human immunodeficiency virus; assay: Inhibition of HIV wild type integrase assessed as strand transfer activity using U5 GdCA LTR by scintillation proximity assay relative to wild type LTR; design: scale not given: the % may be the effect or the level left
[12] = tested on: Human immunodeficiency virus; assay: Inhibition of HIV wild type integrase assessed as specific strand transfer activity using U5 GdCA LTR by scintillation proximity assay relative to wild type LTR; design: scale not given: the % may be the effect or the level left
[13] = tested on: Human immunodeficiency virus; assay: Inhibition of HIV wild type integrase assessed as specific strand transfer activity using U5 GTTA LTR by scintillation proximity assay relative to wild type LTR; design: scale not given: the % may be the effect or the level left
[14] = tested on: Human immunodeficiency virus; assay: Inhibition of HIV wild type integrase assessed as strand transfer activity using U5 GTCT LTR by scintillation proximity assay relative to wild type LTR; design: scale not given: the % may be the effect or the level left
[15] = tested on: Human immunodeficiency virus; assay: Binding affinity to HIV wild type integrase using U5 GTC LTR relative to wild type LTR
[16] = tested on: Human immunodeficiency virus; assay: Binding affinity to HIV wild type integrase using U5 GTCA/C LTR relative to wild type LTR
[17] = tested on: Human immunodeficiency virus; assay: Binding affinity to U5 GTCT LTR HIV wild type integrase using U5 GTCT LTR relative to wild type LTR
[18] = tested on: Human immunodeficiency virus type 1 integrase (Human immunodeficiency virus 1), Q7ZJM1 [Q148R]; assay: Inhibition of U5 TTCA LTR HIV recombinant integrase Q148R mutant assessed as specific strand transfer activity using by scintillation proximity assay relative to wild type LTR; design: scale not given: the % may be the effect or the level left
[19] = tested on: Human immunodeficiency virus; assay: Binding affinity to HIV wild type integrase using U5 GTAG LTR relative to wild type LTR
[20] = tested on: Human immunodeficiency virus type 1 integrase (Human immunodeficiency virus 1), Q7ZJM1 [Q148R]; assay: Binding affinity to HIV recombinant integrase Q148R mutant using U5 GTC LTR relative to wild type LTR
[21] = tested on: Human immunodeficiency virus; assay: Inhibition of HIV wild type integrase assessed as strand transfer activity using U5 GTCC LTR by scintillation proximity assay relative to wild type LTR; design: scale not given: the % may be the effect or the level left
[22] = tested on: Human immunodeficiency virus; assay: Inhibition of HIV wild type integrase assessed as strand transfer activity using U5 GTGC LTR by scintillation proximity assay relative to wild type LTR; design: scale not given: the % may be the effect or the level left
[23] = tested on: Human immunodeficiency virus; assay: Inhibition of HIV wild type integrase assessed as strand transfer activity using U5 GTAG LTR by scintillation proximity assay relative to wild type LTR; design: scale not given: the % may be the effect or the level left
[24] = tested on: Human immunodeficiency virus type 1 integrase (Human immunodeficiency virus 1), Q7ZJM1 [N155H]; assay: Inhibition of HIV recombinant integrase N155H mutant assessed as specific strand transfer activity using U5 GddA LTR by scintillation proximity assay relative to wild type LTR; design: scale not given: the % may be the effect or the level left
[25] = tested on: Human immunodeficiency virus; assay: Binding affinity to HIV wild type integrase using U5 GTAA LTR relative to wild type LTR
[26] = tested on: Human immunodeficiency virus; assay: Inhibition of HIV wild type integrase assessed as specific strand transfer activity using U5 GTC LTR by scintillation proximity assay relative to wild type LTR; design: scale not given: the % may be the effect or the level left
[27] = tested on: Human immunodeficiency virus; assay: Inhibition of HIV wild type integrase assessed as strand transfer activity using U5 GTCA LTR by scintillation proximity assay relative to wild type LTR; design: scale not given: the % may be the effect or the level left
[28] = tested on: Human immunodeficiency virus; assay: Inhibition of HIV wild type integrase assessed as strand transfer activity using U5 GTTC LTR by scintillation proximity assay relative to wild type LTR; design: scale not given: the % may be the effect or the level left
[29] = tested on: Human immunodeficiency virus type 1 integrase (Human immunodeficiency virus 1), Q7ZJM1 [Q148R]; assay: Inhibition of HIV recombinant integrase Q148R mutant assessed as strand transfer activity using U5 GTC LTR by scintillation proximity assay relative to wild type LTR; design: scale not given: the % may be the effect or the level left
[30] = tested on: Human immunodeficiency virus type 1 integrase (Human immunodeficiency virus 1), Q7ZJM1 [N155H]; assay: Binding affinity to HIV recombinant integrase N155H mutant using U5 ApTCA LTR relative to wild type LTR
[31] = tested on: Human immunodeficiency virus; assay: Inhibition of HIV wild type integrase assessed as strand transfer activity using U5 GdC LTR by scintillation proximity assay relative to wild type LTR; design: scale not given: the % may be the effect or the level left
[32] = tested on: Human immunodeficiency virus type 1 integrase (Human immunodeficiency virus 1), Q7ZJM1 [Q148R]; assay: Binding affinity to HIV recombinant integrase Q148R mutant using U5 GTCA LTR relative to wild type LTR
[33] = tested on: Human immunodeficiency virus; assay: Inhibition of HIV wild type integrase assessed as strand transfer activity using U5 ATCA LTR by scintillation proximity assay relative to wild type LTR; design: scale not given: the % may be the effect or the level left
[34] = tested on: Human immunodeficiency virus type 1 integrase (Human immunodeficiency virus 1), Q7ZJM1 [N155H]; assay: Binding affinity to HIV recombinant integrase N155H mutant using U5 dTCA LTR relative to wild type LTR
[35] = tested on: Human immunodeficiency virus; assay: Binding affinity to HIV wild type integrase using U5 GdCA LTR relative to wild type LTR
[36] = tested on: Human immunodeficiency virus type 1 integrase (Human immunodeficiency virus 1), Q7ZJM1 [N155H]; assay: Binding affinity to HIV recombinant integrase N155H mutant using U5 GdCA LTR relative to wild type LTR
[37] = tested on: Human immunodeficiency virus type 1 integrase (Human immunodeficiency virus 1), Q7ZJM1 [N155H]; assay: Binding affinity to HIV recombinant integrase N155H mutant using U5 TTCA LTR relative to wild type LTR
[38] = tested on: Human immunodeficiency virus type 1 integrase (Human immunodeficiency virus 1), Q7ZJM1 [N155H]; assay: Inhibition of HIV recombinant integrase N155H mutant assessed as strand transfer activity using U5 ApTCA LTR by scintillation proximity assay relative to wild type LTR; design: scale not given: the % may be the effect or the level left
[39] = tested on: Human immunodeficiency virus; assay: Inhibition of HIV wild type integrase assessed as strand transfer activity using U5 INTCA LTR by scintillation proximity assay relative to wild type LTR; design: scale not given: the % may be the effect or the level left
[40] = tested on: Human immunodeficiency virus; assay: Binding affinity to HIV wild type integrase using U5 GTGC LTR relative to wild type LTR
[41] = tested on: Human immunodeficiency virus type 1 integrase (Human immunodeficiency virus 1), Q7ZJM1 [N155H]; assay: Binding affinity to HIV recombinant integrase N155H mutant using U5 GddA LTR relative to wild type LTR
[42] = tested on: Human immunodeficiency virus; assay: Inhibition of HIV wild type integrase assessed as specific strand transfer activity using U5 GACA LTR by scintillation proximity assay relative to wild type LTR; design: scale not given: the % may be the effect or the level left
[43] = tested on: Human immunodeficiency virus type 1 integrase (Human immunodeficiency virus 1), Q7ZJM1 [N155H]; assay: Inhibition of HIV recombinant integrase N155H mutant assessed as specific strand transfer activity using U5 GTdA LTR by scintillation proximity assay relative to wild type LTR; design: scale not given: the % may be the effect or the level left
[44] = tested on: Human immunodeficiency virus; assay: Binding affinity to HIV wild type integrase using U5 GTCA/CG LTR relative to wild type LTR

Cn1c(N2CCCCS2(=O)=O)nc(C(=O)NCc2ccc(F)cc2)c(O)c1=O [BMS-707035]
Activity [1]: 75% | Activity [2]: 3% | Activity [3]: 107% | Activity [4]: 86% | Activity [5]: 28% | Activity [6]: < 25% | Activity [7]: < 25% | Activity [8]: < 25% | Activity [9]: 90% | Activity [10]: 135% | Activity [11]: 70% | Activity [12]: 103% | Activity [13]: 143% | Activity [14]: 75% | Activity [15]: 59% | Activity [16]: < 25% | Activity [17]: 75% | Activity [18]: > 80% | Activity [19]: < 25% | Activity [20]: 5% | Activity [21]: 75% | Activity [22]: 25% | Activity [23]: < 25% | Activity [24]: 3% | Activity [25]: 22% | Activity [26]: 100% | Activity [27]: 75% | Activity [28]: 25% | Activity [29]: 19% | Activity [30]: 2% | Activity [31]: 10% | Activity [32]: 3% | Activity [33]: 75% | Activity [34]: 2% | Activity [35]: 40% | Activity [36]: 21% | Activity [37]: 1% | Activity [38]: 2% | Activity [39]: 45% | Activity [40]: 25% | Activity [41]: 9% | Activity [42]: 97% | Activity [43]: 35% | Activity [44]: 25%

Source: ChEMBL document CHEMBL1156506, “Changes to the HIV long terminal repeat and to HIV integrase differentially impact HIV integrase assembly, activity, and the binding of strand transfer inhibitors” (J Biol Chem, 2007)
